Source: ChEMBL document CHEMBL3046260, “Synthesis of benzo[b][1,4]oxazin-3(4H)-ones via smiles rearrangement for antimicrobial activity” (2011)
Values after ≈ are worked out from the molar mass of the structure shown. Active and inactive are the calls of the source. The rule behind the calls is not given here.

Experiments:
Staphylococcus aureus [1] = experiment: Microbiostatic activity against Staphylococcus aureus ATCC 25923 after 24 hr
Pseudomonas aeruginosa [2] = experiment: Antimicrobial activity against Pseudomonas aeruginosa ATCC 27853 after 24 hr by two-fold serial dilution method; type: functional; conditions: ATCC 27853, 24 h
Escherichia coli [3] = experiment: Antimicrobial activity against Escherichia coli ATCC 25922 after 24 hr by two-fold serial dilution method; type: functional; conditions: ATCC 25922, 24 h
Staphylococcus aureus [4] = experiment: Antimicrobial activity against Staphylococcus aureus ATCC 25923 after 24 hr by two-fold serial dilution method; type: functional; conditions: ATCC 25923, 24 h
Bacillus spizizenii [5] = experiment: Microbiostatic activity against Bacillus subtilis subsp. spizizenii ATCC 6633 after 24 hr
Proteus vulgaris [6] = experiment: Antimicrobial activity against Proteus vulgaris ATCC 6896 after 24 hr by two-fold serial dilution method; type: functional; conditions: ATCC 6896, 24 h
Escherichia coli [7] = experiment: Microbiostatic activity against Escherichia coli ATCC 25922 after […]; type: functional, organism-based
Proteus vulgaris [8] = experiment: Microbiostatic activity against Proteus vulgaris ATCC 6896 after 24 hr
Candida albicans [9] = experiment: Microbiostatic activity against Candida albicans ATCC 76615; type: functional, organism-based
Aspergillus flavus [10] = experiment: Microbiostatic activity against Aspergillus flavus ATCC 10124; type: functional, organism-based
Bacillus spizizenii [11] = experiment: Antimicrobial activity against Bacillus subtilis subsp. spizizenii ATCC 6633 after 24 hr by two-fold serial dilution method; type: functional; conditions: ATCC 6633, 24 h
Pseudomonas aeruginosa [12] = experiment: Microbiostatic activity against Pseudomonas aeruginosa ATCC 27853 after 24 hr
Aspergillus flavus [13] = experiment: Antimicrobial activity against Aspergillus flavus ATCC 10124 after 48 hr by two-foldserial dilution method; type: functional; conditions: ATCC 10124, 48 h
Candida albicans [14] = experiment: Antimicrobial activity against Candida albicans ATCC 76615 after 48 hr by two-fold serial dilution method; type: functional; conditions: ATCC 76615, 48 h

| Structure (SMILES) | Activity (Staphylococcus aureus [1]) | MIC (Pseudomonas aeruginosa [2]) | MIC (Escherichia coli [3]) | MIC (Staphylococcus aureus [4]) | Activity (Bacillus spizizenii [5]) | MIC (Proteus vulgaris [6]) | Activity (Escherichia coli [7]) | Activity (Proteus vulgaris [8]) | Activity (Candida albicans [9]) | Activity (Aspergillus flavus [10]) | MIC (Bacillus spizizenii [11]) | Activity (Pseudomonas aeruginosa [12]) | MIC (Aspergillus flavus [13]) | MIC (Candida albicans [14]) |
| --- | --- | --- | --- | --- | --- | --- | --- | --- | --- | --- | --- | --- | --- | --- |
| CC1(C)S[C@@H]2[C@H](NC(=O)[C@H](N)c3ccccc3)C(=O)N2[C@H]1C(=O)O [AMPICILLIN] | Active | 128 µg/mL (≈ 366 µM) | 16 µg/mL (≈ 45.8 µM) | 2 µg/mL (≈ 5.72 µM) | Active | 16 µg/mL (≈ 45.8 µM) | Active | Active | Active | Active | 1 µg/mL (≈ 2.86 µM) | Active |  |  |
| O=C1COc2cc(Br)ccc2N1Cc1ccccc1 | Active | 16 µg/mL (≈ 50.3 µM) | 32 µg/mL (≈ 101 µM) | 32 µg/mL (≈ 101 µM) | Active | 32 µg/mL (≈ 101 µM) | Active | Active | Active | Active | 32 µg/mL (≈ 101 µM) | Active | 128 µg/mL (≈ 402 µM) | 128 µg/mL (≈ 402 µM) |
| O=C1COc2cc(F)ccc2N1Cc1ccccc1 | Active | 16 µg/mL (≈ 62.2 µM) | 16 µg/mL (≈ 62.2 µM) | 64 µg/mL (≈ 249 µM) | Active | 32 µg/mL (≈ 124 µM) | Active | Active | Active | Active | 32 µg/mL (≈ 124 µM) | Active | 128 µg/mL (≈ 498 µM) | 256 µg/mL (≈ 995 µM) |
| O=C1COc2cc(Cl)ccc2N1CC1CCCO1 (stereo not drawn) | Active | 64 µg/mL (≈ 239 µM) | 32 µg/mL (≈ 120 µM) | 32 µg/mL (≈ 120 µM) | Active | 32 µg/mL (≈ 120 µM) | Active | Active | Active | Active | 32 µg/mL (≈ 120 µM) | Active | 256 µg/mL (≈ 956 µM) | 128 µg/mL (≈ 478 µM) |
| O=C1COc2ccc(Cl)cc2N1C1CCCCC1 | Active | 64 µg/mL (≈ 241 µM) | 128 µg/mL (≈ 482 µM) | 128 µg/mL (≈ 482 µM) | Active | 16 µg/mL (≈ 60.2 µM) | Active | Active | Active | Active | 32 µg/mL (≈ 120 µM) | Active | 32 µg/mL (≈ 120 µM) | 32 µg/mL (≈ 120 µM) |
| O=C1COc2ccc(Cl)cc2N1Cc1ccccc1 | Active | 128 µg/mL (≈ 468 µM) | 128 µg/mL (≈ 468 µM) | 64 µg/mL (≈ 234 µM) | Active | 32 µg/mL (≈ 117 µM) | Active | Active | Active | Active | 32 µg/mL (≈ 117 µM) | Active | 32 µg/mL (≈ 117 µM) | 64 µg/mL (≈ 234 µM) |
| O=C1COc2cc(Br)ccc2N1CC1CCCO1 (stereo not drawn) | Active | 64 µg/mL (≈ 205 µM) | 32 µg/mL (≈ 103 µM) | 32 µg/mL (≈ 103 µM) | Active | 32 µg/mL (≈ 103 µM) | Active | Active | Active | Active | 32 µg/mL (≈ 103 µM) | Active |  | 128 µg/mL (≈ 410 µM) |
| CCCCCCN1C(=O)COc2cc(Br)ccc21 | Active | 32 µg/mL (≈ 102 µM) | 32 µg/mL (≈ 102 µM) | 32 µg/mL (≈ 102 µM) | Active | 16 µg/mL (≈ 51.2 µM) | Active | Active | Active | Active | 32 µg/mL (≈ 102 µM) | Active |  | 128 µg/mL (≈ 410 µM) |
| CCCCCCN1C(=O)COc2cc(F)ccc21 | Active | 128 µg/mL (≈ 509 µM) | 16 µg/mL (≈ 63.7 µM) | 32 µg/mL (≈ 127 µM) | Active | 16 µg/mL (≈ 63.7 µM) | Active | Active | Active | Active | 32 µg/mL (≈ 127 µM) | Active | 128 µg/mL (≈ 509 µM) | 128 µg/mL (≈ 509 µM) |
| O=C1COc2c(Cl)cccc2N1C1CCCCC1 | Active | 16 µg/mL (≈ 60.2 µM) | 32 µg/mL (≈ 120 µM) | 64 µg/mL (≈ 241 µM) | Active | 32 µg/mL (≈ 120 µM) | Active | Active | Active | Active | 32 µg/mL (≈ 120 µM) | Active | 256 µg/mL (≈ 963 µM) | 128 µg/mL (≈ 482 µM) |
| O=C1COc2cc(F)ccc2N1CC1CCCO1 (stereo not drawn) | Active | 128 µg/mL (≈ 509 µM) | 32 µg/mL (≈ 127 µM) | 32 µg/mL (≈ 127 µM) | Active | 16 µg/mL (≈ 63.7 µM) | Active | Active | Active | Active | 32 µg/mL (≈ 127 µM) | Active |  | 256 µg/mL (≈ 1020 µM) |
| O=C1COc2cc(Cl)ccc2N1Cc1ccccc1 | Active | 16 µg/mL (≈ 58.5 µM) | 64 µg/mL (≈ 234 µM) | 64 µg/mL (≈ 234 µM) | Active | 64 µg/mL (≈ 234 µM) | Active | Active | Active | Active | 32 µg/mL (≈ 117 µM) | Active | 128 µg/mL (≈ 468 µM) | 128 µg/mL (≈ 468 µM) |
| O=C1COc2cc(F)ccc2N1C1CCCCC1 | Active | 16 µg/mL (≈ 64.2 µM) | 16 µg/mL (≈ 64.2 µM) | 16 µg/mL (≈ 64.2 µM) | Active | 16 µg/mL (≈ 64.2 µM) | Active | Active | Active | Active | 32 µg/mL (≈ 128 µM) | Active | 64 µg/mL (≈ 257 µM) | 256 µg/mL (≈ 1030 µM) |
| O=C1COc2cc(Cl)ccc2N1C1CCCCC1 | Active | 32 µg/mL (≈ 120 µM) | 32 µg/mL (≈ 120 µM) | 64 µg/mL (≈ 241 µM) | Active | 64 µg/mL (≈ 241 µM) | Active | Active | Active | Active | 64 µg/mL (≈ 241 µM) | Active | 128 µg/mL (≈ 482 µM) | 256 µg/mL (≈ 963 µM) |
| Clc1ccccc1C(c1ccccc1)(c1ccccc1)n1ccnc1 [CLOTRIMAZOLE] | Active | 512 µg/mL (≈ 1480 µM) | 512 µg/mL (≈ 1480 µM) | 512 µg/mL (≈ 1480 µM) | Active | 512 µg/mL (≈ 1480 µM) | Active | Active | Active | Active | 512 µg/mL (≈ 1480 µM) | Active | 2 µg/mL (≈ 5.8 µM) | 2 µg/mL (≈ 5.8 µM) |
| O=C1COc2cc(Cl)ccc2N1CCc1ccccc1 | Active | 16 µg/mL (≈ 55.6 µM) | 32 µg/mL (≈ 111 µM) | 64 µg/mL (≈ 222 µM) | Active | 16 µg/mL (≈ 55.6 µM) | Active | Active | Active | Active | 64 µg/mL (≈ 222 µM) | Active |  | 128 µg/mL (≈ 445 µM) |
| CN[C@@H]1[C@H](O[C@H]2[C@H](O[C@H]3[C@H](O)[C@@H](O)[C@H](N=C(N)N)[C@@H](O)[C@@H]3N=C(N)N)O[C@@H](C)[C@]2(O)C=O)O[C@@H](CO)[C@H](O)[C@H]1O [STREPTOMYCIN] | Active | 2 µg/mL (≈ 3.44 µM) | 4 µg/mL (≈ 6.88 µM) | 2 µg/mL (≈ 3.44 µM) | Active | 4 µg/mL (≈ 6.88 µM) | Active | Active | Active | Active | 32 µg/mL (≈ 55 µM) | Active |  |  |
| CCCCCCN1C(=O)COc2cc(Cl)ccc21 | Active | 32 µg/mL (≈ 120 µM) | 32 µg/mL (≈ 120 µM) | 32 µg/mL (≈ 120 µM) | Active | 16 µg/mL (≈ 59.8 µM) | Active | Active | Active | Active | 32 µg/mL (≈ 120 µM) | Active |  | 512 µg/mL (≈ 1910 µM) |
| CC(C)(O/N=C(\C(=O)N[C@@H]1C(=O)N2C(C(=O)[O-])=C(C[n+]3ccccc3)CS[C@H]12)c1csc(N)n1)C(=O)O [CEFTAZIDIME] | Active | 128 µg/mL (≈ 234 µM) | 4 µg/mL (≈ 7.32 µM) | 4 µg/mL (≈ 7.32 µM) | Active | 4 µg/mL (≈ 7.32 µM) | Active | Active | Active | Active | 2 µg/mL (≈ 3.66 µM) | Active |  |  |
| O=C1COc2cc(Br)ccc2N1C1CCCCC1 | Active | 16 µg/mL (≈ 51.6 µM) | 16 µg/mL (≈ 51.6 µM) | 32 µg/mL (≈ 103 µM) | Active | 32 µg/mL (≈ 103 µM) | Active | Active | Active | Active | 32 µg/mL (≈ 103 µM) | Active |  | 256 µg/mL (≈ 825 µM) |
